The source of these data is patent publication US20250163057A1, “DCN-1 MODULATING COMPOUNDS AND METHODS OF USE THEREOF” (Cellarity, Inc., priority 2023, published 2025).

Each structure is given as a SMILES string. Read-outs that look alike come from different tables or passages of the source.

The test system of assay [1] is Cullin-3 (CUL3) neddylation. Kind of assay: AlphaLISA assay for Cullin-3 (CUL3) neddylation in TF 1 cells. In kind it is cell-based. As to conditions: Homo sapiens, TF-1, 3 h, 3 hours treatment. The essentials: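 Neddylated CUL3 was quantified by AlphaLISA in lysates of TF 1 cells exposed for 3 h to test compound in IMDM without supplements. Percent inhibition set between vehicle and 1 μM DI-1548 positive control; IC50 derived by Hill-equation fitting of dose-response curves.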
On the technique in general: In Alpha technology, singlet oxygen from a donor bead excites a nearby acceptor bead.

Assay [2] addresses DCN1 (DCUND1) protein PONY domain (Homo sapiens (Human), UniProt Q96GG9). In words: TR-FRET assay, DCN1 binding with FAM-labeled probe. The procedure, abridged: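 TR-FRET ratio (Tb-DCN1 to FAM-probe) read at 1, 5 and 24 hrs after compound addition. Protein: recombinant PONY domain from E. coli, biotinylated and coupled to streptavidin terbium. Either 5 nM DCN1 with 20 nM FAM-probe, or 0.31 nM DCN1 with 100 nM FAM-labelled plus 800 nM unlabelled probe.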
In general terms: TR-FRET usually uses a lanthanide donor and a delayed reading to cut background.

Setting [3] is: 24 hr after treatment with compound, read-out: TR FRET IC50 24 hr.
Where [4] appears, read: TR FRET IC50 1 hr (nM), 1 hr after treatment with compound.
[5] abbreviates: read-out: TR FRET IC50 1 hr, 1 hr after treatment with compound.

By IC50 is commonly meant the concentration at which inhibition is half-maximal.

Sequence of DCN1 (DCUND1) protein PONY domain (Q96GG9 60-248): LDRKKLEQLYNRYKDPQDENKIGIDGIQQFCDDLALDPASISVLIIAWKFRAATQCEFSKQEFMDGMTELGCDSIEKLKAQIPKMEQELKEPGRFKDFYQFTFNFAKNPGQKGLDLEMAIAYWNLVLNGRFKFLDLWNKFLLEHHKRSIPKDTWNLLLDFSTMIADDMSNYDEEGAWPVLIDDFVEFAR

Regarding `CCN1C(=O)[C@@H](NC(=O)COc2ccccc2)[C@@H](C2CC2)c2c(C(=O)N3[C@H](C#N)C[C@H]4C[C@H]43)nn(C3CCOCC3)c21` [Compound I-628], the figures for the IC50 in assay [1], in assay [2] (setting [3]) and in assay [2] (setting [4]) were 100 to 1000 nM, 1000 to 3000 nM and 1000 to 3000 nM, respectively.

For `CCN1C(=O)[C@@H](NC(=O)CN2CC(c3ccccc3)CC2=O)[C@@H](C2CC2)c2c(C(=O)N3[C@H](C#N)C[C@H]4C[C@H]43)nn(C3CCOCC3)c21` (stereo partly drawn) [Compound I-629], the IC50 was over 1000 nM in assay [1], 1000 to 3000 nM in assay [2] (setting [3]) and 1000 to 3000 nM in assay [2] (setting [4]).

As to `CCN1C(=O)[C@@H](NC(=O)c2cccc(C(F)(F)F)c2)[C@@H](c2ccc(F)cc2)c2c(C(=O)N3CCC=C3C#N)nn(C3CCOCC3)c21` [Compound I-631, N-((4S,5S)-3-(5-cyano-2,3-dihydro-1H-pyrrole-1-carbonyl)-7-ethyl-4-(4-fluorophenyl)-6-oxo-1-(tetrahydro-2H-pyran-4-yl)-4,5,6,7-tetrahydro-1H-pyrazolo[3,4-b]pyridin-5-yl)-3-(trifluoromethyl)benzamide], the results for the IC50 in assay [1], in assay [2] (setting [3]) and in assay [2] (setting [4]) were 100 to 1000 nM, at most 200 nM and 200 to 1000 nM, respectively.

In the case of `CCN1C(=O)[C@@H](NC(=O)c2ccc3[nH]cnc3c2)[C@@H](C2CC2)c2c(C(=O)N3[C@H](C#N)C[C@H]4C[C@H]43)nn(C3CCOCC3)c21` [Compound I-632], the IC50 in assay [1] was over 1000 nM; in assay [2] (setting [3]), 1000 to 3000 nM; in assay [2] (setting [4]), 1000 to 3000 nM.

In the case of `CCN1C(=O)[C@@H](NC(=O)c2cccc3c2CCCO3)[C@@H](C2CC2)c2c(C(=O)N3[C@H](C#N)C[C@H]4C[C@H]43)nn(C3CCOCC3)c21` [Compound I-633], the IC50 in assay [1] was 100 to 1000 nM; in assay [2] (setting [3]), 200 to 1000 nM; in assay [2] (setting [4]), 1000 to 3000 nM.

For `CCN1C(=O)[C@@H](NC(=O)[C@@H]2CCN(Cc3ccccc3)C2)[C@@H](C2CC2)c2c(C(=O)N3[C@H](C#N)C[C@H]4C[C@H]43)nn(C3CCOCC3)c21` [Compound I-634], the IC50 is over 1000 nM in assay [1], 1000 to 3000 nM in assay [2] (setting [3]) and 1000 to 3000 nM in assay [2] (setting [4]).

For `CCN1C(=O)[C@@H](NC(=O)c2cccc(C(F)(F)F)c2)[C@@H](c2ccc(F)cc2)c2c(CNC/C=C/C(=O)OC(C)(C)C)nn(-c3ccccc3)c21` [Compound I-635], the IC50 in assay [1] was 100 to 1000 nM; in assay [2] (setting [3]) it was at most 200 nM; in assay [2] (setting [4]), 1000 to 3000 nM.

In the case of `CCN1C(=O)[C@@H](NC(=O)c2cccc(C(F)(F)F)c2)[C@@H](c2ccc(F)cc2)c2c(CN(C)C/C=C/C(=O)N(C)C)nn(-c3ccccc3)c21` [Compound I-638], the IC50 in assay [1] is over 1000 nM; in assay [2] (setting [3]) it was at most 200 nM; in assay [2] (setting [5]) it was at most 200 nM.

As to `CCN1C(=O)[C@@H](NC(=O)c2nccc(C(F)(F)F)n2)[C@H](c2ccc(F)cc2)c2c(CC(=O)N(C)CC#N)nn(-c3ccccc3)c21` [Compound I-640, N-((4R,5S)-3-(2-((cyanomethyl)(methyl)amino)-2-oxoethyl)-7-ethyl-4-(4-fluorophenyl)-6-oxo-1-phenyl-4,5,6,7-tetrahydro-1H-pyrazolo[3,4-b]pyridin-5-yl)-4-(trifluoromethyl)pyrimidine-2-carboxamide], the IC50 in assay [1] was 100 to 1000 nM; in assay [2] (setting [3]), 1000 to 3000 nM; in assay [2] (setting [4]) it was 1000 to 3000 nM.

Regarding `CCN1C(=O)[C@@H](NC(=O)c2cccc(C(F)(F)F)c2)[C@H](c2ccc(F)cc2)c2c(CNC(=O)C(C)C#N)nn(-c3ccccc3)c21` (stereo partly drawn) [Compound I-641], the IC50 in assay [1] was over 1000 nM; in assay [2] (setting [3]) it was 200 to 1000 nM; in assay [2] (setting [4]), 200 to 1000 nM.

As for `CCN1C(=O)[C@H](NC(=O)c2cccc(C(F)(F)F)c2)C(C2CC2)c2c(C(=O)N3CCC[C@H]3C#N)nn(-c3ccccc3)c21` (stereo partly drawn) [Compound I-642], the IC50 is over 1000 nM in assay [1], 1000 to 3000 nM in assay [2] (setting [3]) and 1000 to 3000 nM in assay [2] (setting [4]).

`CCN1C(=O)[C@@H](NC(=O)c2cccc(C(F)(F)F)c2)[C@@H](c2ccc(F)cc2)c2c(CN(C#N)CCCN(C)C3COC3)nn(-c3ccccc3)c21` [Compound I-646]: the IC50 in assay [1] was at most 100 nM; in assay [2] (setting [3]), at most 200 nM; in assay [2] (setting [5]), at most 200 nM.
